Among the data in patent EP0517225A1, “Aminopyrrolidine platinum compounds, a process for preparing them and pharmaceutical compositions containing them” (priority 1991, dated 1992) are LD₅₀, LD₁₀ and LD₉₀ values, retold here.

One data set deals with male BDF₁ mice. The data set is described as follows: Acute toxicity test, LD50 i.p. (Litchfield-Wilcoxon method). The conditions noted are these: 6-7 week-old male BDF₁ mice, 18-22 g. It counts as in vivo.
Data set [1] relates to E.coli bacterial strain, AB2463 mutant strain (RecA). The data set is described as follows: Mutagenicity test: mortality of RecA-deficient E. coli strain. To be noted: RecA strain AB2463, treated for 2 hours at 37 °C. Type of data set: cell-based. As to the method:
A summary of results in mutagenicity and acute toxicity tests is given hereinbelow. a) Mutagenicity tests: E.coli bacterial strain, AB2463 mutant strain (RecA) was used. […] RecA strain, AB2463 mutant strain, which is defective in the recombination and induction of SOS system, was treated for 2 hours at 37^ºC with compounds of the present invention. […]

`CCC1C(N)CCN1CC.[Cl][Pt][Cl]` (stereo not drawn) [Example 4, Cis-dichloro(3-amino-1,2-diethylpyrrolidine)platinum^(II)] displayed an LD₅₀ with male BDF₁ mice of 113.81 mg/kg. For the same compound, in data set [1], the LD₁₀ was determined as 18.97 µM, the LD₅₀ is on record as 35.57 µM and the LD₉₀ was found to be 72.33 µM.
On to `CC1C(N)CCN1C.[Cl][Pt][Cl]` (stereo not drawn) [Example 1, Cis-dichloro(3-amino-1,2-dimethylpyrrolidine)platinum^(II)], for which the LD₅₀ in the data set on male BDF₁ mice was determined as 95.02 mg/kg. In addition, in data set [1], the LD₁₀ was >1.2 µM, the LD₅₀ is given as 5.98 µM and the LD₉₀ worked out at 13.15 µM.
For `N.N.[Cl][Pt][Cl]` [Cisplatin, reference compound], in data set [1], the LD₁₀ is recorded as 5.72 µM, the LD₅₀ is reported as 17.0 µM and the LD₉₀ was 56.0 µM.
`CCC1C(N)CCN1C.[Cl][Pt][Cl]` (stereo not drawn) [Example 3, Cis-dichloro(3-amino-2-ethyl-1-methylpyrrolidine)platinum^(II)] yielded an LD₅₀ with male BDF₁ mice of 82.72 mg/kg. Further, in data set [1], the LD₁₀ stood at 10.74 µM, the LD₅₀ turned out to be 17.89 µM and the LD₉₀ was 35.78 µM.
The matching figures for `CCN1CCC(N)C1C.[Cl][Pt][Cl]` (stereo not drawn) [Example 2, Cis-dichloro(3-amino-1-ethyl-2-methylpyrrolidine)platinum^(II)]: 60.95 mg/kg, 15.86 µM, 57.08 µM and 301.27 µM.
With `N.N.O=C([O-])C1(C(=O)[O-])CCC1.[Pt+2]` [Carboplatin, reference compound], in the data set on male BDF₁ mice, the LD₅₀ is on record as 117.5 mg/kg. In data set [1], the LD₁₀ came to 71.53 µM, the LD₅₀ worked out at 606.0 µM and the LD₉₀ was 1599 µM.
